Measurements from the supplement of paper PMC8612539.

System: Pasteurella multocida
Experiment: minimum inhibitory concentration (MIC)
Description: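 Broth microdilution MIC (Sensititre BOPO7F bovine plate, CLSI methods) of 19 antimicrobials against field isolates of P. multocida, M. haemolytica, H. somni (deep nasopharyngeal swabs) and E. coli, Enterococcus spp. (rectal swabs) from weaned dairy heifers. Incubation 16-24 h at 35 C. MIC is the lowest concentration preventing visible growth. Values with <= or > lie at the tested range limits. Trimethoprim-sulfamethoxazole is given as the trimethoprim component of a 1:19 mixture.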

Measured: minimum inhibitory concentration

COc1cc(NS(=O)(=O)c2ccc(N)cc2)nc(OC)n1 [sulfadimethoxine]
> 256 µg/mL: isolate (source animal id): 10 | isolate (source animal id): 11 | isolate (source animal id): 12 | isolate (source animal id): 19 | isolate (source animal id): 23 | isolate (source animal id): 26 | isolate (source animal id): 98 | isolate (source animal id): 104 | isolate (source animal id): 115 | isolate (source animal id): 117 | isolate (source animal id): 118 | isolate (source animal id): 121 | isolate (source animal id): 124 | isolate (source animal id): 125 | isolate (source animal id): 128 | isolate (source animal id): 131 | isolate (source animal id): 135 | isolate (source animal id): 136 | isolate (source animal id): 140 | isolate (source animal id): 144 | isolate (source animal id): 146 | isolate (source animal id): 150 | isolate (source animal id): 151 | isolate (source animal id): 153 | isolate (source animal id): 155 | isolate (source animal id): 157 | isolate (source animal id): 160 | isolate (source animal id): 164 | isolate (source animal id): 165 | isolate (source animal id): 167 | isolate (source animal id): 168 | isolate (source animal id): 169 | isolate (source animal id): 170 | isolate (source animal id): 171 | isolate (source animal id): 172 | isolate (source animal id): 173 | isolate (source animal id): 174 | isolate (source animal id): 175 | isolate (source animal id): 176 | isolate (source animal id): 177 | isolate (source animal id): 178 | isolate (source animal id): 179 | isolate (source animal id): 182 | isolate (source animal id): 192 | isolate (source animal id): 193 | isolate (source animal id): 195 | isolate (source animal id): 196 | isolate (source animal id): 197 | isolate (source animal id): 198 | isolate (source animal id): 199 | isolate (source animal id): 200 | isolate (source animal id): 201 | isolate (source animal id): 203 | isolate (source animal id): 204 | isolate (source animal id): 205 | isolate (source animal id): 206 | isolate (source animal id): 207 | isolate (source animal id): 208 | isolate (source animal id): 209 | isolate (source animal id): 210 | isolate (source animal id): 213 | isolate (source animal id): 216 | isolate (source animal id): 223 | isolate (source animal id): 227 | isolate (source animal id): 229 | isolate (source animal id): 233 | isolate (source animal id): 234 | isolate (source animal id): 237 | isolate (source animal id): 241 | isolate (source animal id): 245 | isolate (source animal id): 247 | isolate (source animal id): 250 | isolate (source animal id): 254 | isolate (source animal id): 255 | isolate (source animal id): 258 | isolate (source animal id): 261 | isolate (source animal id): 262 | isolate (source animal id): 269 | isolate (source animal id): 270 | isolate (source animal id): 274 | isolate (source animal id): 275 | isolate (source animal id): 276 | isolate (source animal id): 277 | isolate (source animal id): 278 | isolate (source animal id): 279 | isolate (source animal id): 280 | isolate (source animal id): 284 | isolate (source animal id): 285 | isolate (source animal id): 287 | isolate (source animal id): 290 | isolate (source animal id): 294 | isolate (source animal id): 295 | isolate (source animal id): 296 | isolate (source animal id): 307 | isolate (source animal id): 310 | isolate (source animal id): 311 | isolate (source animal id): 312 | isolate (source animal id): 313 | isolate (source animal id): 315 | isolate (source animal id): 316
